Starred links: 1 amine or outer side, 2 acyl side, 3 side chain; linkers in the order of their positions; H or OH if unused. Positions of bridges follow the written chain, without caps; N, C: chain ends. Non-standard residues stand in square brackets, D forms with d. Residues, ends and D or L forms follow the SMILES beside them. *: point of attachment. hPhe(3,5-F2-4-CF3) = N[C@@H](CCc1cc(F)c(C(F)(F)F)c(F)c1)C(=O)O; hPhe(3-Cl-4-CF3) = N[C@@H](CCc1ccc(C(F)(F)F)c(Cl)c1)C(=O)O; hPhe(4-CF3) = N[C@@H](CCc1ccc(C(F)(F)F)cc1)C(=O)O; NMePhe(4-Cl) = CN[C@@H](Cc1ccc(Cl)cc1)C(=O)O; NMedβ3hAla = C[C@H](CC(=O)[*:2])N(C)[*:1]; X22 = O=C([C@@H]1Cc2ccccc2N1[*:1])[*:2]; NMeGly(cPent) = CN[C@H](C(=O)O)C1CCCC1; Pro(4,4-F2) = O=C(O)[C@@H]1CC(F)(F)CN1; NMeCha = CN[C@@H](CC1CCCCC1)C(=O)O; NMeCba = CN[C@@H](CC1CCC1)C(=O)O; NMeChg = CN[C@H](C(=O)O)C1CCCCC1; NMeD = CN[C@@H](CC(=O)O)C(=O)O; NMeL = CN[C@@H](CC(C)C)C(=O)O; NMehSer = CN[C@@H](CCO)C(=O)O; NMeS = CN[C@@H](CO)C(=O)O; Pip = O=C(O)[C@@H]1CCCCN1; NMeA = CN[C@@H](C)C(=O)O; Piperidide = C1CCN(*)CC1; Pyrrolidide = C1CCN(*)C1; Ac5c = NC1(C(=O)O)CCCC1; Aze = O=C(O)[C@@H]1CCN1; Thp = NC1(C(=O)O)CCOCC1; Ac4c = NC1(C(=O)O)CCC1; Sar = CNCC(=O)O; Propyl = CCC*
Target: T1, Kras and SOS1 (biotin-tagged human Kras loaded with GDP, His-tagged human SOS1) (Homo sapiens, UniProt P01116, G12D)
T1 construct: made in house; host or cells: E. coli (stated for Kras only)
Assay: Protein-protein interaction inhibition between Kras and SOS1 (KrasGl2D-SOS PPI) using AlphaScreen
Type: binding
Conditions: AlphaScreen; biotin-tagged human Kras loaded with GDP, His-tagged human SOS1; read-out: KRAS G12D-SOS PPI IC50
In short: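 Donor beads (nickel) hold His-SOS1; acceptor beads (streptavidin) hold biotin-Kras bound to GDP. Signal measured at 520-620 nm following 680 nm excitation.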

T1 sequence (P01116 1-188 isoform P01116-2 G12D): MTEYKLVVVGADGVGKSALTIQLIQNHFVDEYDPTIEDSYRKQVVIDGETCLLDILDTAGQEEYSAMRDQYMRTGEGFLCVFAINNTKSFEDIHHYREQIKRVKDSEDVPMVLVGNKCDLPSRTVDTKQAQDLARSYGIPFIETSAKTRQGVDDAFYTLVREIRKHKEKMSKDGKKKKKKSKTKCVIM

Compound	IC50
CC[C@H](C)[C@@H]1NC(=O)[C@H](CC(C)C)N(C)C(=O)C[C@@H](C(=O)N2CCCCC2)N(C)C(=O)[C@H](C2CCCCC2)N(C)C(=O)C2(CCCC2)NC(=O)[C@@H]2CCCN2C(=O)[C@H](CCc2ccc(C(F)(F)F)c(Cl)c2)NC(=O)[C@H](C)N(C)C(=O)[C@H](CC2CCCCC2)N(C)C(=O)CN(C)C(=O)CN(C)C1=O [Compound 722] ([NMeL]I[Sar][Sar][NMeCha][NMeA][hPhe(3-Cl-4-CF3)]P[Ac5c][NMeChg][NMeD]-Piperidide; lactam N-11)	0.42 µM
CC[C@H](C)[C@@H]1NC(=O)[C@H](CC(C)C)N(C)C(=O)C[C@@H](C)N(C)C(=O)[C@H](CC2CCC2)N(C)C(=O)C2(CCCC2)NC(=O)[C@@H]2CCCN2C(=O)[C@H](CCc2ccc(C(F)(F)F)c(Cl)c2)NC(=O)CN(C)C(=O)[C@H](CC2CCCCC2)N(C)C(=O)CN(C)C(=O)CN(C)C1=O [Compound 723] (cyclo([Ac5c][NMeCba][NMedβ3hAla][NMeL]I[Sar][Sar][NMeCha][Sar][hPhe(3-Cl-4-CF3)]P))	0.017 µM
CC[C@H](C)[C@@H]1NC(=O)[C@H](CC(C)C)N(C)C(=O)C[C@@H](C(=O)N2CCCCC2)N(C)C(=O)[C@H](C2CCCCC2)N(C)C(=O)C2(CCCC2)NC(=O)[C@@H]2Cc3ccccc3N2C(=O)[C@H](CCc2ccc(C(F)(F)F)c(Cl)c2)NC(=O)CN(C)C(=O)[C@H](CC2CCCCC2)N(C)C(=O)[C@@H]2CCN2C(=O)CN(C)C1=O [Compound 725] ([NMeL]I[Sar][Aze][NMeCha][Sar][hPhe(3-Cl-4-CF3)][X22][Ac5c][NMeChg][NMeD]-Piperidide; lactam N-11)	0.0078 µM
CC[C@H](C)[C@@H]1NC(=O)[C@H](CC(C)C)N(C)C(=O)C[C@@H](C(=O)N2CCCCC2)N(C)C(=O)[C@H](C2CCCCC2)N(C)C(=O)C2(CCCC2)NC(=O)[C@@H]2CCCCN2C(=O)[C@H](CCc2ccc(C(F)(F)F)c(Cl)c2)NC(=O)CN(C)C(=O)[C@H](CC2CCCCC2)N(C)C(=O)CN(C)C(=O)CN(C)C1=O [Compound 728] ([NMeL]I[Sar][Sar][NMeCha][Sar][hPhe(3-Cl-4-CF3)][Pip][Ac5c][NMeChg][NMeD]-Piperidide; lactam N-11)	0.016 µM
CC[C@H](C)[C@@H]1NC(=O)[C@H](CC(C)C)N(C)C(=O)C[C@@H](C(=O)N(C)C)N(C)C(=O)[C@H](C2CCCC2)N(C)C(=O)[C@H](C)NC(=O)[C@@H](C)NC(=O)[C@H](CCc2ccc(C(F)(F)F)c(Cl)c2)NC(=O)CN(C)C(=O)[C@H](CC2CCCCC2)N(C)C(=O)[C@@H]2CCN2C(=O)[C@H](C)N(C)C1=O [Compound 736] ([NMeL]I[NMeA][Aze][NMeCha][Sar][hPhe(3-Cl-4-CF3)][dA]A[NMeGly(cPent)][NMeD]-NMe2; lactam N-11)	0.037 µM
CC[C@H](C)[C@@H]1NC(=O)[C@H](CC(C)C)N(C)C(=O)C[C@@H](C)N(C)C(=O)[C@H](C2CCCCC2)N(C)C(=O)C2(CCC2)NC(=O)[C@@H]2CC(F)(F)CN2C(=O)[C@H](CCc2cc(F)c(C(F)(F)F)c(F)c2)NC(=O)CN(C)C(=O)[C@H](CC2CCCCC2)N(C)C(=O)CN(C)C(=O)CN(C)C1=O [Compound 738] (cyclo([Ac4c][NMeChg][NMedβ3hAla][NMeL]I[Sar][Sar][NMeCha][Sar][hPhe(3,5-F2-4-CF3)][Pro(4,4-F2)]))	0.015 µM
CCCOC[C@H]1C(=O)N(C)[C@@H](CC(C)C)C(=O)N[C@H](C(=O)N2CCCC2)CC(=O)N(C)[C@@H](C)C(=O)N[C@@H]([C@@H](C)CC)C(=O)N(C)CC(=O)N(C)CC(=O)N(C)[C@@H](Cc2ccc(Cl)cc2)C(=O)N(C)CC(=O)N[C@@H](CCc2ccc(C(F)(F)F)cc2)C(=O)N[C@@H](CC(C)C)C(=O)N1C [Compound 739] ([NMeA]I[Sar][Sar][NMePhe(4-Cl)][Sar][hPhe(4-CF3)]L[NMeS](Propyl)[NMeL]D-Pyrrolidide; lactam N-11)	0.036 µM
CC[C@H](C)[C@@H]1NC(=O)[C@H](CC(C)C)N(C)C(=O)C[C@@H](C)N(C)C(=O)[C@H](CC(C)C)N(C)C(=O)C2(CCOCC2)NC(=O)[C@@H]2CCCN2C(=O)[C@H](CCc2ccc(C(F)(F)F)c(Cl)c2)NC(=O)CN(C)C(=O)[C@H](CC2CCCCC2)N(C)C(=O)CN(C)C(=O)CN(C)C1=O [Compound 742] (cyclo(I[Sar][Sar][NMeCha][Sar][hPhe(3-Cl-4-CF3)]P[Thp][NMeL][NMedβ3hAla][NMeL]))	0.017 µM
CC[C@H](C)[C@@H]1NC(=O)[C@H](CC(C)C)N(C)C(=O)C[C@@H](C(=O)N2CCCCC2)N(C)C(=O)[C@H](CCOC)N(C)C(=O)C2(CCCC2)NC(=O)[C@@H]2CCCN2C(=O)[C@H](CCc2ccc(C(F)(F)F)c(Cl)c2)NC(=O)CN(C)C(=O)[C@H](CC2CCCCC2)N(C)C(=O)CN(C)C(=O)CN(C)C1=O [Compound 744] ([NMeL]I[Sar][Sar][NMeCha][Sar][hPhe(3-Cl-4-CF3)]P[Ac5c][NMehSer](Me)[NMeD]-Piperidide; lactam N-11)	0.0075 µM

From patent publication US12371454B2, “Cyclic peptide compound having Kras inhibitory action” (priority 2019, dated 2025)
